According to the supplement of paper PMC13380429:

Legend:
Conditions in all cases: 72 h
Caco-2 [1] = test: cell viability relative to DMSO; higher = less toxic
Calu-3 [2] = test: as above
HepG2 [3] = test: as above
U2OS [4] = test: as above
Vero E6 [5] = test: as above
Caco-2 [6] = test: relative viability EC50 (midpoint between 100% and the lowest measured viability); higher = less toxic
Calu-3 [7] = test: as above
HepG2 [8] = test: as above
U2OS [9] = test: as above
Vero E6 [10] = test: as above
Caco-2 [11] = test: drug sensitivity score (DSS) for viability; higher = more toxic; extreme values may be limits of the assay
Calu-3 [12] = test: as above
HepG2 [13] = test: as above
U2OS [14] = test: as above
Vero E6 [15] = test: as above

Work on `C[C@@H](Nc1cc(F)cc(F)c1)c1cc(C(=O)N(C)C)cc2c(=O)cc(N3CCOCC3)oc12` [AZD8186] yielded a cell viability (Caco-2 [1]; 1 nM) of 90.7%, a cell viability (Caco-2 [1]; 10 nM) of 78.2% and a cell viability (Caco-2 [1]; 100 nM) of 84.1%. The cell viability (Caco-2 [1]; 1000 nM) was 75.3%, the cell viability (Caco-2 [1]; 10000 nM) was 48% and the cell viability (Calu-3 [2]; 1 nM) was 88.4%. The cell viability (Calu-3 [2]; 10 nM) was 100%, the cell viability (Calu-3 [2]; 100 nM) was 82.8% and the cell viability (Calu-3 [2]; 1000 nM) was 76.4%. For the same molecule, the cell viability (Calu-3 [2]; 10000 nM) was 47.8%, the cell viability (HepG2 [3]; 1 nM) was 101% and the cell viability (HepG2 [3]; 10 nM) was 92.2%. For the same molecule, the cell viability (HepG2 [3]; 100 nM) was 96.5%, the cell viability (HepG2 [3]; 1000 nM) was 92% and the cell viability (HepG2 [3]; 10000 nM) was 75.7%. For the same molecule, the cell viability (U2OS [4]; 1 nM) was 96.2%, the cell viability (U2OS [4]; 10 nM) was 97.3% and the cell viability (U2OS [4]; 100 nM) was 96.8%. It also gave a cell viability (U2OS [4]; 1000 nM) of 87.9%, a cell viability (U2OS [4]; 10000 nM) of 76.9% and a cell viability (Vero E6 [5]; 1 nM) of 96.8%. The cell viability (Vero E6 [5]; 10 nM) was 95.6%, the cell viability (Vero E6 [5]; 100 nM) was 89.2% and the cell viability (Vero E6 [5]; 1000 nM) was 78.9%. The cell viability (Vero E6 [5]; 10000 nM) was 75%, the “relative viability EC50” value (Caco-2 [6]) was 0.2 µM and the “relative viability EC50” value (Calu-3 [7]) was 0.6 µM. The “relative viability EC50” value (HepG2 [8]) was > 10 µM, the “relative viability EC50” value (U2OS [9]) was > 10 µM and the “relative viability EC50” value (Vero E6 [10]) was > 10 µM. The drug sensitivity score (Caco-2 [11]) was 8.8, the drug sensitivity score (Calu-3 [12]) was 6.4 and the drug sensitivity score (HepG2 [13]) was 1.5. For the same molecule, the drug sensitivity score (U2OS [14]) was 1.7 and the drug sensitivity score (Vero E6 [15]) was 3.8.

In the case of `CCCCC(=O)O[C@]1(C(=O)CO)[C@@H](C)C[C@H]2[C@@H]3CCC4=CC(=O)C=C[C@]4(C)[C@@]3(F)[C@@H](O)C[C@@]21C` [BETAMETHASONE VALERATE], the cell viability (Caco-2 [1]; 1 nM) is reported as 103%, the cell viability (Caco-2 [1]; 10 nM) is reported as 86.2% and the cell viability (Caco-2 [1]; 100 nM) is reported as 113%. It also gave a cell viability (Caco-2 [1]; 1000 nM) of 110%, a cell viability (Caco-2 [1]; 10000 nM) of 96.1% and a cell viability (Calu-3 [2]; 1 nM) of 105%. It also gave a cell viability (Calu-3 [2]; 10 nM) of 101%, a cell viability (Calu-3 [2]; 100 nM) of 95.2% and a cell viability (Calu-3 [2]; 1000 nM) of 93.7%. The cell viability (Calu-3 [2]; 10000 nM) was 117%, the cell viability (HepG2 [3]; 1 nM) was 107% and the cell viability (HepG2 [3]; 10 nM) was 114%. For the same molecule, the cell viability (HepG2 [3]; 100 nM) was 90%, the cell viability (HepG2 [3]; 1000 nM) was 107% and the cell viability (HepG2 [3]; 10000 nM) was 76.4%. For the same molecule, the cell viability (U2OS [4]; 1 nM) was 95.8%, the cell viability (U2OS [4]; 10 nM) was 96.2% and the cell viability (U2OS [4]; 100 nM) was 95%. It also gave a cell viability (U2OS [4]; 1000 nM) of 94.8%, a cell viability (U2OS [4]; 10000 nM) of 92.4% and a cell viability (Vero E6 [5]; 1 nM) of 105%. It also gave a cell viability (Vero E6 [5]; 10 nM) of 102%, a cell viability (Vero E6 [5]; 100 nM) of 95.4% and a cell viability (Vero E6 [5]; 1000 nM) of 91.1%. For the same molecule, the cell viability (Vero E6 [5]; 10000 nM) was 95.6%, the “relative viability EC50” value (Caco-2 [6]) was > 10 µM and the “relative viability EC50” value (Calu-3 [7]) was > 10 µM. The “relative viability EC50” value (HepG2 [8]) was > 10 µM, the “relative viability EC50” value (U2OS [9]) was > 10 µM and the “relative viability EC50” value (Vero E6 [10]) was > 10 µM. It also gave a drug sensitivity score (Caco-2 [11]) of 0, a drug sensitivity score (Calu-3 [12]) of 0 and a drug sensitivity score (HepG2 [13]) of 0.6. It also gave a drug sensitivity score (U2OS [14]) of 0 and a drug sensitivity score (Vero E6 [15]) of 0.

`CC(=O)N[C@H]1[C@@H](OC(C)C)O[C@H](COC(C)=O)[C@@H](OC(C)=O)[C@@H]1OC(C)=O` [C34] gave a cell viability (Caco-2 [1]; 1 nM) of 106%, a cell viability (Caco-2 [1]; 10 nM) of 109% and a cell viability (Caco-2 [1]; 100 nM) of 91.8%. It also gave a cell viability (Caco-2 [1]; 1000 nM) of 101%, a cell viability (Caco-2 [1]; 10000 nM) of 98.5% and a cell viability (Calu-3 [2]; 1 nM) of 112%. It also gave a cell viability (Calu-3 [2]; 10 nM) of 96.1%, a cell viability (Calu-3 [2]; 100 nM) of 103% and a cell viability (Calu-3 [2]; 1000 nM) of 95.5%. It also gave a cell viability (Calu-3 [2]; 10000 nM) of 101%, a cell viability (HepG2 [3]; 1 nM) of 95.3% and a cell viability (HepG2 [3]; 10 nM) of 102%. For the same molecule, the cell viability (HepG2 [3]; 100 nM) was 102%, the cell viability (HepG2 [3]; 1000 nM) was 102% and the cell viability (HepG2 [3]; 10000 nM) was 110%. For the same molecule, the cell viability (U2OS [4]; 1 nM) was 102%, the cell viability (U2OS [4]; 10 nM) was 106% and the cell viability (U2OS [4]; 100 nM) was 96.9%. It also gave a cell viability (U2OS [4]; 1000 nM) of 103%, a cell viability (U2OS [4]; 10000 nM) of 96.3% and a cell viability (Vero E6 [5]; 1 nM) of 96.2%. The cell viability (Vero E6 [5]; 10 nM) was 96.2%, the cell viability (Vero E6 [5]; 100 nM) was 97.1% and the cell viability (Vero E6 [5]; 1000 nM) was 96.6%. For the same molecule, the cell viability (Vero E6 [5]; 10000 nM) was 95.5%, the “relative viability EC50” value (Caco-2 [6]) was > 10 µM and the “relative viability EC50” value (Calu-3 [7]) was > 10 µM. For the same molecule, the “relative viability EC50” value (HepG2 [8]) was > 10 µM, the “relative viability EC50” value (U2OS [9]) was > 10 µM and the “relative viability EC50” value (Vero E6 [10]) was > 10 µM. It also gave a drug sensitivity score (Caco-2 [11]) of 0, a drug sensitivity score (Calu-3 [12]) of 0 and a drug sensitivity score (HepG2 [13]) of 0. The drug sensitivity score (U2OS [14]) was 0 and the drug sensitivity score (Vero E6 [15]) was 0.
